Source: publication PMC12073438, “Stereoselectivity of In Vivo Processes and Bioactivity of Farrerol Enantiomers” (Molecules, 2025)
Read-outs that look alike come from different tables or passages of the source.

Tests used:
[1] = Stereoselective pharmacokinetics in rat kidney tissue; assay type: in vivo, Sprague–Dawley rats; settings: rat kidney, oral 40 mg/kg farrerol racemate; for Cmax / AUC(0–t) / AUC(0–∞): 40 mg/kg
Description: Forty-two rats were divided randomly into seven groups (6 rats per time point at 0.5, 1, 2, 4, 8, 12, and 24 h) and were orally administered farrerol racemate at a dose of 40 mg/kg. Rats from each group were euthanized, and kidney and liver tissues were subsequently obtained. After washing three times using 0.9% sodium chloride solution, the attached blood and fat tissues were removed. Afterward, 0.5 g of the precisely weighed liver and kidney tissues were added to 1 mL 0.9% sodium chloride solution and homogenized in an ice bath. Subsequently, 150 µL of supernatant was transferred into a 2.0 mL EP tube for pre-treatment, in the same way as the pretreatment of plasma samples (see Section 3.4.1).
Stereoselective chromatographic analysis of farrerol enantiomers was conducted utilizing an ACQUITY UPLC I-Class UPLC system (Waters, Milford, MA, USA), which is equipped with a quaternary pump and an autosampler. The chiral separation was carried out employing a Chiralpak OJ-RH column (250 mm × 4.6 mm, 5 μm), which was obtained from Daicel Chemical Industries (Shanghai, China). The mobile phase consisted of ACN-H2O (60:40, v/v), and the constant flow rate was 0.5 mL/min. The column temperature was set at 25 °C, and the injection volume was 10 μL.
Mass detection was conducted using a triple quadrupole mass spectrometer (Waters Co., USA) equipped with an electrospray ionization (ESI) source. The detection of enantiomers and internal standards (IS) was carried out in multiple reaction monitoring (MRM) mode utilizing negative ionization. The m/z 299→179 for enantiomers and m/z 267→252 for IS were selected as detecting ions for quantitation. The collision energies (CE) were established at 22 eV and 20 eV, respectively. The primary mass spectrometry (MS) parameters were configured as follows: capillary voltage was set to 3.5 kV, ion source temperature was maintained at 150 °C, desolvation gas flow rate was 800 L/h, and the cone voltage (CV) was adjusted to 1.3 V.
Pharmacokinetic analysis was conducted utilizing the Drug and Statistics (DAS) 2.0 software provided by the Chinese Pharmacological Society. To assess the differences in pharmacokinetic parameters, the IC50 values of the evaluated CYP enzymes and the permeability coefficients between the two farrerol enantiomers, paired sample t-tests and independent sample t-tests were performed. Statistical significance was defined as * p < 0.05 and ** p < 0.01. All results are presented as mean values ± standard deviation (SD).

CYP2C9 = CYP2C9 (Homo sapiens, UniProt P11712); assay: CYP inhibition in liver microsomes (diclofenac); settings: IC50, CYP 2C9, marker substrate diclofenac
CYP2C9, sequence (P11712 whole entry): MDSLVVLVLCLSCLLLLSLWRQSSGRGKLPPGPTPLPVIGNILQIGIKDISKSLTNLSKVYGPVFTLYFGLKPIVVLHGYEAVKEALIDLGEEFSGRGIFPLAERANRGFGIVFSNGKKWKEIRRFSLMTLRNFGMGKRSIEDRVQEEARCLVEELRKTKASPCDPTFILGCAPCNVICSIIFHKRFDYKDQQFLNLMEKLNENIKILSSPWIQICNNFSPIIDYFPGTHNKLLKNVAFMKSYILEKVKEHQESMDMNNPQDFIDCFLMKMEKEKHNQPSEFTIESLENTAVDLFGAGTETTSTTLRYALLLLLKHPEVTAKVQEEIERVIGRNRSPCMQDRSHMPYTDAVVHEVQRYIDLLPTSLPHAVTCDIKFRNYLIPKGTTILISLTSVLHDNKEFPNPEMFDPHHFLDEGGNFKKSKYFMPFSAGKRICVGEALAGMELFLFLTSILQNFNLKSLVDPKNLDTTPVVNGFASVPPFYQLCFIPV
Description: A liver microsome working solution (20 mg/mL) contained potassium phosphate buffer (0.1 M, pH 7.4), hepatic microsomes and marker substrate solution, which phenacetin, diclofenic acid, S-mephenytoinwer, dextromethorphan, midazolam, coumarin and chlorzoxazone used as substrates for […], CYP2C9, CYP2C19, CYP2D6, CYP3A4/5, CYP2A6 and CYP2E1, respectively. In brief, 238.5 µL of liver microsome working solution was placed in a 1 mL EP tube. […] The reaction was started by injecting NADPH (1 mM), and the resulting mixture was incubated at 37 °C for 10 min. […] Each incubation was conducted in triplicate (n = 3).
An API 4000 LC/tandem mass spectrometry was used to analyze the concentration of metabolites of various chemical agents using a validated mode. An Atlantis T3 column (2.1 mm × 50 mm, 5 μm) was utilized, employing mobile phases consisting of a 0.1% formic acid solution (A) and a 0.1% acetonitrile formate solution (B). […] ESI was conducted in positive ion mode.

CYP2A6 = target: T1, CYP2A6 (Homo sapiens, UniProt P11509); assay: CYP inhibition in liver microsomes (coumarin)
T1 sequence (P11509 1-494): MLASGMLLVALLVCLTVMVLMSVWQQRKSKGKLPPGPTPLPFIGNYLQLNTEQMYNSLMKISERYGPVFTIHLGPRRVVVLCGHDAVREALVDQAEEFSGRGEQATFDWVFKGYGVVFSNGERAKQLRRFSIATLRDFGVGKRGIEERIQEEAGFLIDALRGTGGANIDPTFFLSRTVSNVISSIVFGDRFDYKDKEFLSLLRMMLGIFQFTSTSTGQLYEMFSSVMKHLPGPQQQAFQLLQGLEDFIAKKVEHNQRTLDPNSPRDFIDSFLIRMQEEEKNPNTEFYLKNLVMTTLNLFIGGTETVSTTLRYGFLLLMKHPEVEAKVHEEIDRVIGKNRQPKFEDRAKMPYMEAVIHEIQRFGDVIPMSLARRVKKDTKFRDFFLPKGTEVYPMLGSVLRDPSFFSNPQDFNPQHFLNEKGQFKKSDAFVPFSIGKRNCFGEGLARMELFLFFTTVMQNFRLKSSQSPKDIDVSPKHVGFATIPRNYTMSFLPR
Description: (§1) A liver microsome working solution (20 mg/mL) contained potassium phosphate buffer (0.1 M, pH 7.4), hepatic microsomes and marker substrate solution, which phenacetin, diclofenic acid, S-mephenytoinwer, dextromethorphan, midazolam, coumarin and chlorzoxazone used as substrates for […], CYP2C9, CYP2C19, CYP2D6, CYP3A4/5, CYP2A6 and CYP2E1, respectively. In brief, 238.5 µL of liver microsome working solution was placed in a 1 mL EP tube. […] The reaction was started by injecting NADPH (1 mM), and the resulting mixture was incubated at 37 °C for 10 min. After centrifuging at 4000 rpm for 15 min, the supernatant was transferred and analyzed using LC-MS/MS to detect the corresponding metabolites. Each incubation was conducted in triplicate (n = 3).
An API 4000 LC/tandem mass spectrometry was used to analyze the concentration of metabolites of various chemical agents using a validated mode. An Atlantis T3 column (2.1 mm × 50 mm, 5 μm) was utilized, employing mobile phases consisting of a 0.1% formic acid solution (A) and a 0.1% acetonitrile formate solution (B). […] As for the detection of CYP 2E1 metabolite, the Flow composition was as follows: 0–0.30 min, 10% B; 0.30–1.30 min, 10–55% B; 1.30–1.50 min, 55–95% B; 1.50–2.00 min, 95% B; 2.00–2.01 min, 95–10% B; the low rate was 0.85 mL/min. ESI was conducted in positive ion mode. MRM was utilized to quantify each metabolite, detecting the following transitions: m/z 152.1/110 for acetaminophen, 312.1/230.0 for 4′-Hydroxydiclofenac, 235.0/150.0 for 4′-hydroxymephentoin, 258.2/199.1 for Dextrorphan, 342.1/203.0 for 1′-hydroxymidazolam, 161.1/133.1 for hydroxycoumarin, and 184.0/120.0 for 6-hydroxyclozoxadone.

CYP2E1 = CYP2E1 (Homo sapiens, UniProt P05181); assay: CYP inhibition in liver microsomes (chlorzoxazone); assay type: in vitro ADME; settings: CYP 2E1, marker substrate chlorzoxazone
CYP2E1, sequence (P05181 whole entry): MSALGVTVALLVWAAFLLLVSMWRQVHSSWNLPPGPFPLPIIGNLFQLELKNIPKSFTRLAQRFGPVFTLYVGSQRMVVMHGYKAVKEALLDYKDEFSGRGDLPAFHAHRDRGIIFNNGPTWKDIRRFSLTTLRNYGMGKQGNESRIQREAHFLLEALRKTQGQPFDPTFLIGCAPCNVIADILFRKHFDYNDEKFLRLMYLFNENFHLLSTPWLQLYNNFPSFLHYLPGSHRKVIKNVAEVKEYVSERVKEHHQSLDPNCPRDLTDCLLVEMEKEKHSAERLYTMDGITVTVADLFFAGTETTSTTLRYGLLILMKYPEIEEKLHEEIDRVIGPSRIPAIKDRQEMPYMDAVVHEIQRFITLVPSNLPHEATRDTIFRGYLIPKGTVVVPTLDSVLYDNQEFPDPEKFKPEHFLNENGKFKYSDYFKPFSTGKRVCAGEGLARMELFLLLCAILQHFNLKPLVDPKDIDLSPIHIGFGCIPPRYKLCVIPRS
Description: as §1
An API 4000 LC/tandem mass spectrometry was used to analyze the concentration of metabolites of various chemical agents using a validated mode. An Atlantis T3 column (2.1 mm × 50 mm, 5 μm) was utilized, employing mobile phases consisting of a 0.1% formic acid solution (A) and a 0.1% acetonitrile formate solution (B). […] MRM was utilized to quantify each metabolite, detecting the following transitions: m/z 152.1/110 for acetaminophen, 312.1/230.0 for 4′-Hydroxydiclofenac, 235.0/150.0 for 4′-hydroxymephentoin, 258.2/199.1 for Dextrorphan, 342.1/203.0 for 1′-hydroxymidazolam, 161.1/133.1 for hydroxycoumarin, and 184.0/120.0 for 6-hydroxyclozoxadone.

SMILES | Cmax ([1]; Sprague-Dawley, rat, kidney, po, read-out: Cmax) [ng/g] | Tmax ([1]; Sprague-Dawley, read-out: Tmax) [h] | AUC(0–t) [1] | AUC(0–∞) [1] | IC50 (CYP2C9) [nM] | IC50 (CYP2A6) [µM] | IC50 (CYP2E1) [µM] | AUC0–24 of (−)-farrerol relative to (+)-farrerol [1] [times] | Tmax [1] [h] | Cmax [1] | IC50 (CYP2A6; CYP 2A6, marker substrate coumarin, liver microsomes) [µM]
Cc1c(O)c(C)c2c(c1O)C(=O)CC(c1ccc(O)cc1)O2 (single isomer, unassigned; (+)) [(+)-farrerol, 2,3-dihydro-5,7-dihydroxy-2-(4-hydroxyphenyl)-6,8-dimethyl-4-benzopyrone] | 3020 ± 350 | 1 | 23.93 ± 2.11 µg·h/g | 25.70 ± 2.09 µg·h/g | 1970 | > 50 | > 50 | – | – | – | –
Cc1c(O)c(C)c2c(c1O)C(=O)CC(c1ccc(O)cc1)O2 (single isomer, unassigned; (-)) [(−)-farrerol, 2,3-dihydro-5,7-dihydroxy-2-(4-hydroxyphenyl)-6,8-dimethyl-4-benzopyrone] | – | – | 28.89 ± 2.53 * µg/g*h | 30.31 ± 2.47 * µg/g*h | 1570 | – | > 50 | 1.20 | 1.00 | 4.18 ± 0.48 * µg/g | > 50
